Here are results for two compounds from patent publication EP0684822B1, “CARBOCYCLIC DEOXYGUANOSINE ANALOGS FOR THE TREATMENT OF VIRAL INFECTIONS” (SOUTHERN RESEARCH INSTITUTE, priority 1993, dated 1994).

One series deals with HSV-1 (strain 377, TK+). The series can be described thus: Antiviral activity against HSV-1. It is filed as cell-based. The following applies: for VR / EC50: HSV-1, range of tests; for EC50: Human alphaherpesvirus 1, read-out: Mic50. As for the experimental part: (§1) D-2'-CdG and L-2'-CdG were tested, alongside D,L-2'-CdG, against both HSV-1 (strain 377, TK+; obtained from Dr. Earl Kern, University of Alabama) and HSV-2 (strain MS, TK+; also obtained from Dr. Earl Kern). In these tests (Table 5), Ara-A and acyclovir (ACV) were the positive control drugs. In four tests vs. HSV-1, the antiviral activity (VR) and potency (MIC50) of D-2'-CdG were approximately the same as those of racemic 2-CdG. L-2'-CdG was only modestly active.

In series [1] the test system is H.Ep.-2 cells infected with HSV-1. The series can be described thus: Metabolism in HSV-1-infected H.Ep.-2 cells, SAX HPLC. Format: cell-based, human. The following applies: H.Ep.-2 cells infected with HSV-1, 8 hours, Fig. 4. As for the experimental part:
The in vivo metabolism of D- and L-2'CdG was also measured in HSV-[TK+]-infected, HSV-[TK-]-infected and mock infected H.Ep.-2 cells (human epidermal carcinoma cells, ATCC CCL23). Uninfected and infected cells were incubated in fresh medium containing 2 µCi/ml of either [^3H]-D- or L-2'CdG, as described above, to measure the metabolism of these enantiomers. After 8 hours the cells were harvested and washed free of medium with PBS, and extracts were prepared with cold 0.5 N perchloric acid for 0.5 hr. The extract was then neutralized with potassium bicarbonate and the resulting precipitate was removed by centrifugation. The supernatant was lyophilized to dryness and the acid-soluble metabolites were separated using SAX HPLC as described above.
(§2) While these findings are similar to those obtained with the isolated viral kinase, they differ from the resulted with the isolated enzyme in that relatively more di- and triphosphate were formed from L-2'CdG.

The target of a further series is T1, HSV-TK extract (Human herpesvirus 1, UniProt P0DTH5).
T1 construct: HSV thymidine kinase (HSV TK) was isolated from HELA (BU25) cells infected with the SW148 strain of HSV-1; made in house; host or cells: HeLa (BU25) thymidine-kinase-deficient cells infected with HSV-1 strain S148/SW148
T1 sequence (P0DTH5 whole entry): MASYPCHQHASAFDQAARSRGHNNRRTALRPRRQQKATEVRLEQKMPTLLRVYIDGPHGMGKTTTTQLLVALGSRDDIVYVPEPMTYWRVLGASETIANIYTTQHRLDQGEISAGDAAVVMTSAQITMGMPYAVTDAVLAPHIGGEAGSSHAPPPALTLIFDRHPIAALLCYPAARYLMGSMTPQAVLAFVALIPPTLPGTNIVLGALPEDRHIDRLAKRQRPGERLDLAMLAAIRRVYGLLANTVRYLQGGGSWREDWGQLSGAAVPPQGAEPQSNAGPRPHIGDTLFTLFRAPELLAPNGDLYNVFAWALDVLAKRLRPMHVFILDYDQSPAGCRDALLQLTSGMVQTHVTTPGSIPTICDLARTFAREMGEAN
Briefly: Phosphorylated products formed by HSV-TK extract, SAX HPLC. Format: biochemical, HSV-1. As to conditions: for DPM di / DPM mono / DPM nucleoside / DPM total / DPM tri: 10 µM [3H] compound, 2 hours; for major phosphorylated derivative: 50 µM, 60 minutes at 37°C, Fig. 3. As for the experimental part:
HSV thymidine kinase activity was measured in 200 µl volumes containing HSV-TK extract obtained as described previously (Belzarini et al., supra), 5.0 mM ATP, 5 mM MgCl2, 9 mM potassium fluoride, 11.2 µg phosphoenol pyruvate, 5 µg of pyruvate kinase, 10 mM β-mercaptoethanol and either 50 µM [3H]-D-, L, or no drug for 60 minutes at 37°C. The reaction was stopped with perchloric acid (PCA), neutralized with potassium bicarbonate, and the reaction products were analyzed by SAX HPLC. The UV absorption spectra of selected peaks were determined with a rapid spectral detector (LKB, Gaithersburg, MD). […] The amount of monophosphate derived from L-2'CdG was about the same as the amount of triphosphate derived from D-2'CdG, and confirmed the results of the disk assay.
HSV extracts were also incubated with 10 µM of either [^3H]-D- or L-2'Cdg, as described above, to measure the metabolism of these entantiomers. After 2 hours the reaction was stopped with perchloric acid (PCA), neutralized with potassium bicarbonate, and the acid-soluble metabolites were separated using SAX HPLC as described above. The results are summarized below.: TABLE 3

A further series deals with CCRF-CEM cells. The series can be described thus: Phosphorylation in uninfected CCRF-CEM cells, effects of dCyd and mycophenolic acid. The following applies: for increase in the phosphates in the presence of mycophenolic acid / reduction of the amount of phosphates in the presence of dCyd: Fig. 6; for reduction of the amount of phosphates in the presence of dCyd: calculated from the radioactivity in the peaks. Format: cell-based. As for the experimental part: as §2
Identity of the cellular enzyme(s) responsible for the phosphorylation of the enantiomers of 2'CdG. […] 36:291, 1989). To determine if dCyd kinase was involved, studies were carried out in which cells were indubated with D- or L-2'CdG and dCyd, and the formation of phosphates was monitored by HPLC. […] The presence of mycophenolic acid produced an increase in the phosphates of D- or L-2'CdG of 2.5-fold and 1.4-fold, respectively.

For a further series, the system named is HSV-2 (strain MS, TK+). The series can be described thus: Antiviral activity against HSV-2. It is filed as cell-based. The following applies: HSV-2. As for the experimental part:
as §1
These compounds were tested against HSV-2(TK^+). The VR of ACV was somewhat higher than the VR values of D-2'-CdG and D,L-2'-CdG, but the values of MIC50 of the two forms of 2'-CdG were lower. In addition, experiments comparing the antiviral activity D-2'-CdG with acyclovir against HSV-1 in human foreskin fibroblasts have shown an even greater potency, in favor of D-2'-CdG.

The target of a further series is T2, HSV-1 TK (Human herpesvirus 1, UniProt P0DTH5).
T2 construct: HSV thymidine kinase (HSV TK) was isolated from HELA (BU25) cells infected with the SW148 strain of HSV-1; made in house; host or cells: HeLa (BU25) thymidine-kinase-deficient cells infected with HSV-1 strain S148/SW148
T2 sequence (P0DTH5 whole entry): as above
The series can be described thus: Competitive inhibition of [3H]-thymidine phosphorylation by partially purified HSV-1 TK. Format: biochemical. As for the experimental part: The Ki's were determined from a plot of the slope of each line versus the concentration of the competitor (D-, L, or D,L-2'CdG) and are summarized below: TABLE 2

pKi: −log10 of the molar value. Values after ≈ are worked out from the molar mass of the structure shown.

As usually defined, the pKi is the negative decadic logarithm of the Ki, by convention in mol/L. Low values mean a large Ki, high ones a small Ki. As for `Nc1nc2c(ncn2[C@@H]2C[C@H](CO)[C@@H](O)C2)c(=O)[nH]1` [D-2'-CdG, [1R,3S,4R-(1α,3β,4α)]-D-2-Amino-1,9-dihydro-9-[3-hydroxy-4-(hydroxymethyl)cyclopentyl]-6H-purin-6-one], in the series with HSV-1 (strain 377, TK+), the VR was 4.8-6.3 and the EC50 is 0.1 to 0.3 µg/mL (≈ 0.377 to 1.13 µM). Moreover, the “potency relative to ACV” value with HSV-1 (strain 377, TK+) (more potent than ACV) was 5-10 times. For the same compound, in series [1], the principal soluble metabolite result is “the triphosphate”. On HSV-TK extract, the DPM di was determined as 2427 DPM, the DPM mono was determined as 2138 DPM, the DPM nucleoside came to 38555 DPM and the DPM total stood at 128000 DPM. At HSV-TK extract, the DPM tri was 85073 DPM and the major phosphorylated derivative entry is “the triphosphate”. Besides, in the series on CCRF-CEM cells, the “increase in the phosphates in the presence of mycophenolic acid” value was 2.5 fold and the “reduction of the amount of phosphates in the presence of dCyd” value was 80-90%. Besides, the predominant metabolite entry with CCRF-CEM cells (uninfected CEM cells, Fig. 5) is reported as “the triphosphate”. The compound further yielded a VR in the series on HSV-2 (strain MS, TK+) of 3.8. The EC50 with HSV-2 (strain MS, TK+) (Human alphaherpesvirus 2, read-out: Mic50) is 0.7 µg/mL (≈ 2.64 µM). The pKi on HSV-1 TK was 5.68.
Regarding `Nc1nc2c(ncn2[C@H]2C[C@@H](CO)[C@H](O)C2)c(=O)[nH]1` [L-2'-CdG, [1S,3R,4S-(1α,3β,4α)]-L-2-Amino-1,9-dihydro-9-[3-hydroxy-4-(hydroxymethyl)cyclopentyl]-6H-purin-6-one], in the series on HSV-1 (strain 377, TK+), the VR is 0.8-2.4 and the EC50 is 39 to 257 µg/mL (≈ 147 to 969 µM). Also, the principal soluble metabolite entry in series [1] is given as “the monophosphate”. On HSV-TK extract, this compound registered a DPM di of 2050 DPM, a DPM mono of 115000 DPM, a DPM nucleoside of 40944 DPM and a DPM total of 158000 DPM. On HSV-TK extract, the DPM tri is listed as 410 DPM and the major phosphorylated derivative result is “primarily to the monophosphate form”. Besides, in the series on CCRF-CEM cells, the “increase in the phosphates in the presence of mycophenolic acid” value was determined as 1.4 fold and the “reduction of the amount of phosphates in the presence of dCyd” value is recorded as 80-90%. Besides, in the series on CCRF-CEM cells (uninfected CEM cells, Fig. 5), the predominant metabolite entry is “the monophosphate” and the “total amount of phosphates formed, relative to D-2'CdG” value was “about twice that formed from D-2'CdG”. Also, the VR in the series on HSV-2 (strain MS, TK+) was 0. This compound also showed a negative-log Ki (pKi) at HSV-1 TK of 5.47.
